In this assay the target is human Gal-3 (hGal-3) (Homo sapiens (Human), UniProt P17931). Put plainly: Competitive binding assay: biotinylated hGal-3 binding to microplate-adsorbed asialofetuin (ASF). The conditions noted are these: Activity on hGal-3; mean values of several measurements; mixture of diastereomers measured where not separated. The method, then: The inhibitory activity of compounds is determined in competitive binding assays. This spectrophotometric assay measures the binding of biotinylated human Gal-3 (hGal-3) or human Gal-1 (hGal-1), respectively, to a microplate-adsorbed glycoprotein, asialofetuin (ASF) (Proc Natl Acad Sci USA. 2013 Mar 26;110(13):5052-7.). Alternatively, and preferably, a human Gal-1 version in which all six cysteines are substituted by serines may be used.
human Gal-3 (hGal-3), sequence (P17931 whole entry): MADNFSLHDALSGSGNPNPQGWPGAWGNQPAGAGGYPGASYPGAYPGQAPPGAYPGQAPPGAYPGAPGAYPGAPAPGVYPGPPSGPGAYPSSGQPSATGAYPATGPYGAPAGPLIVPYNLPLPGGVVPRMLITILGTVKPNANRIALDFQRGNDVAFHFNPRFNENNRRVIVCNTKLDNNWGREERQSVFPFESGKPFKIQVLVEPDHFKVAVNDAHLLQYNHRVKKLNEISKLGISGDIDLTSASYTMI
Briefly, compounds are serially diluted in DMSO (working dilutions).
Plates are incubated for 3 hours at 4° C., then washed with cold assay buffer (3×50 uL), incubated for 1 hour with 25 μL/well of a streptavidin-peroxidase solution (diluted in assay buffer to 80 ng/mL) at 4° C., followed by further washing steps with assay buffer (3×50 uL). Finally, 25 μL/well of ABTS substrate is added.
The calculated IC50 values may fluctuate depending on the daily assay performance. Fluctuations of this kind are known to those skilled in the art. IC50 values from several measurements are given as mean values.

pIC50: −log10 of the molar value.

The source of these data is patent US20240124427A1, “HYDROXYHETEROCYCLOALKANE-CARBAMOYL DERIVATIVES” (Idorsia Pharmaceuticals Ltd, priority 2021, published 2024).

For orientation: pIC50 means −log10 of the IC50, conventionally taken in molar units. For the compound `CO[C@@H]1[C@@H](n2cc(-c3ccc(C)c(F)c3F)nn2)[C@@H](O)[C@@H](CO)O[C@H]1C(=O)N(c1cc(Br)cc(C#N)c1)[C@H]1COC[C@@H]1O` [Example 20, (2R,3R,4S,5R,6R)-N-(3-bromo-5-cyanophenyl)-4-(4-(2,3-difluoro-4-methylphenyl)-1H-1,2,3-triazol-1-yl)-5-hydroxy-6-(hydroxymethyl)-N-((3S,4R)-4-hydroxytetrahydrofuran-3-yl)-3-methoxytetrahydro-2H-pyran-2-carboxamide], the pIC50 was 7.51.
As for `CO[C@@H]1[C@@H](n2cc(-c3ccc(C)c(F)c3F)nn2)[C@@H](O)[C@@H](CO)O[C@H]1C(=O)N(c1cc(C)cc(Br)c1)[C@H]1COC[C@@H]1O` [Example 21, (2R,3R,4S,5R,6R)-N-(3-bromo-5-methylphenyl)-4-(4-(2,3-difluoro-4-methylphenyl)-1H-1,2,3-triazol-1-yl)-5-hydroxy-6-(hydroxymethyl)-N-((3S,4R)-4-hydroxytetrahydrofuran-3-yl)-3-methoxytetrahydro-2H-pyran-2-carboxamide], the pIC50 is 7.46.
Under `CO[C@@H]1[C@@H](n2cc(-c3cc(F)c(Cl)c(F)c3)nn2)[C@@H](O)[C@@H](CO)O[C@H]1C(=O)N(c1cc(Cl)cc(Cl)c1)[C@H]1COC[C@@H]1O` [Example 22, (2R,3R,4S,5R,6R)-4-(4-(4-chloro-3,5-difluorophenyl)-1H-1,2,3-triazol-1-yl)-N-(3,5-dichlorophenyl)-5-hydroxy-6-(hydroxymethyl)-N-((3S,4R)-4-hydroxytetrahydrofuran-3-yl)-3-methoxytetrahydro-2H-pyran-2-carboxamide] stands 7.30.
Under `CO[C@@H]1[C@@H](n2cc(-c3cc(F)c(Cl)c(F)c3)nn2)[C@@H](O)[C@@H](CO)O[C@H]1C(=O)N(c1cc(Br)cc(Br)c1)[C@H]1COC[C@@H]1O` [Example 23, (2R,3R,4S,5R,6R)-4-(4-(4-chloro-3,5-difluorophenyl)-1H-1,2,3-triazol-1-yl)-N-(3,5-dibromophenyl)-5-hydroxy-6-(hydroxymethyl)-N-((3S,4R)-4-hydroxytetrahydrofuran-3-yl)-3-methoxytetrahydro-2H-pyran-2-carboxamide] stands 7.26; under `CO[C@@H]1[C@@H](n2cc(-c3cc(F)c(Cl)c(F)c3)nn2)[C@@H](O)[C@@H](CO)O[C@H]1C(=O)N(c1cc(C)cc(Br)c1)[C@H]1COC[C@@H]1O` [Example 25, (2R,3R,4S,5R,6R)-N-(3-bromo-5-methylphenyl)-4-(4-(4-chloro-3,5-difluorophenyl)-1H-1,2,3-triazol-1-yl)-5-hydroxy-6-(hydroxymethyl)-N-((3S,4R)-4-hydroxytetrahydrofuran-3-yl)-3-methoxytetrahydro-2H-pyran-2-carboxamide], 7.51; under `CO[C@@H]1[C@@H](n2cc(-c3ccc(Cl)c(Cl)c3)nn2)[C@@H](O)[C@@H](CO)O[C@H]1C(=O)N(c1cc(Cl)cc(Cl)c1)[C@H]1COC[C@@H]1O` [Example 26, (2R,3R,4S,5R,6R)-N-(3,5-dichlorophenyl)-4-(4-(3,4-dichlorophenyl)-1H-1,2,3-triazol-1-yl)-5-hydroxy-6-(hydroxymethyl)-N-((3S,4R)-4-hydroxytetrahydrofuran-3-yl)-3-methoxytetrahydro-2H-pyran-2-carboxamide], 6.79.
Under `CO[C@@H]1[C@@H](n2cc(-c3ccc(Cl)c(Cl)c3)nn2)[C@@H](O)[C@@H](CO)O[C@H]1C(=O)N(c1cc(Br)cc(Br)c1)[C@H]1COC[C@@H]1O` [Example 27, (2R,3R,4S,5R,6R)-N-(3,5-dibromophenyl)-4-(4-(3,4-dichlorophenyl)-1H-1,2,3-triazol-1-yl)-5-hydroxy-6-(hydroxymethyl)-N-((3S,4R)-4-hydroxytetrahydrofuran-3-yl)-3-methoxytetrahydro-2H-pyran-2-carboxamide] stands 7.05.
Regarding `CO[C@@H]1[C@@H](n2cc(-c3ccc(Cl)c(Cl)c3)nn2)[C@@H](O)[C@@H](CO)O[C@H]1C(=O)N(c1cc(Br)cc(C#N)c1)[C@H]1COC[C@@H]1O` [Example 28, (2R,3R,4S,5R,6R)-N-(3-bromo-5-cyanophenyl)-4-(4-(3,4-dichlorophenyl)-1H-1,2,3-triazol-1-yl)-5-hydroxy-6-(hydroxymethyl)-N-((3S,4R)-4-hydroxytetrahydrofuran-3-yl)-3-methoxytetrahydro-2H-pyran-2-carboxamide], the pIC50 was 6.94.
In the case of `CO[C@@H]1[C@@H](n2cc(-c3ccc(Cl)c(Cl)c3)nn2)[C@@H](O)[C@@H](CO)O[C@H]1C(=O)N(c1cc(C)cc(Br)c1)[C@H]1COC[C@@H]1O` [Example 29, (2R,3R,4S,5R,6R)-N-(3-bromo-5-methylphenyl)-4-(4-(3,4-dichlorophenyl)-1H-1,2,3-triazol-1-yl)-5-hydroxy-6-(hydroxymethyl)-N-((3S,4R)-4-hydroxytetrahydrofuran-3-yl)-3-methoxytetrahydro-2H-pyran-2-carboxamide] it was 6.82; in that of `CO[C@@H]1[C@@H](n2cc(-c3cc(F)c(F)c(F)c3)nn2)[C@@H](O)[C@@H](CO)O[C@H]1C(=O)N(c1cccc(Cl)c1)[C@@H]1COC[C@H]1O` [Example 30, (2R,3R,4S,5R,6R)-N-(3-chlorophenyl)-5-hydroxy-6-(hydroxymethyl)-N-((3R,4S)-4-hydroxytetrahydrofuran-3-yl)-3-methoxy-4-(4-(3,4,5-trifluorophenyl)-1H-1,2,3-triazol-1-yl)tetrahydro-2H-pyran-2-carboxamide], 6.63.
Take `CO[C@@H]1[C@@H](n2cc(-c3cc(F)c(F)c(F)c3)nn2)[C@@H](O)[C@@H](CO)O[C@H]1C(=O)N(c1cccc(Br)c1)[C@@H]1COC[C@H]1O` [Example 31, (2R,3R,4S,5R,6R)-N-(3-bromophenyl)-5-hydroxy-6-(hydroxymethyl)-N-((3R,4S)-4-hydroxytetrahydrofuran-3-yl)-3-methoxy-4-(4-(3,4,5-trifluorophenyl)-1H-1,2,3-triazol-1-yl)tetrahydro-2H-pyran-2-carboxamide]: the pIC50 is 6.99.
Under `CO[C@@H]1[C@@H](n2cc(-c3cc(F)c(F)c(F)c3)nn2)[C@@H](O)[C@@H](CO)O[C@H]1C(=O)N(c1cccc(I)c1)[C@@H]1COC[C@H]1O` [Example 32, (2R,3R,4S,5R,6R)-5-hydroxy-6-(hydroxymethyl)-N-((3R,4S)-4-hydroxytetrahydrofuran-3-yl)-N-(3-iodophenyl)-3-methoxy-4-(4-(3,4,5-trifluorophenyl)-1H-1,2,3-triazol-1-yl)tetrahydro-2H-pyran-2-carboxamide] stands 6.89; under `CO[C@@H]1[C@@H](n2cc(-c3cc(F)c(F)c(F)c3)nn2)[C@@H](O)[C@@H](CO)O[C@H]1C(=O)N(c1cc(Cl)cc(Cl)c1)[C@@H]1COC[C@H]1O` [Example 33, (2R,3R,4S,5R,6R)-N-(3,5-dichlorophenyl)-5-hydroxy-6-(hydroxymethyl)-N-((3R,4S)-4-hydroxytetrahydrofuran-3-yl)-3-methoxy-4-(4-(3,4,5-trifluorophenyl)-1H-1,2,3-triazol-1-yl)tetrahydro-2H-pyran-2-carboxamide], 6.98.
Turning to `CO[C@@H]1[C@@H](n2cc(-c3cc(F)c(F)c(F)c3)nn2)[C@@H](O)[C@@H](CO)O[C@H]1C(=O)N(c1cc(Cl)cc(C#N)c1)[C@@H]1COC[C@H]1O` [Example 34, (2R,3R,4S,5R,6R)-N-(3-chloro-5-cyanophenyl)-5-hydroxy-6-(hydroxymethyl)-N-((3R,4S)-4-hydroxytetrahydrofuran-3-yl)-3-methoxy-4-(4-(3,4,5-trifluorophenyl)-1H-1,2,3-triazol-1-yl)tetrahydro-2H-pyran-2-carboxamide], the pIC50 is 6.99.
Consider `CO[C@@H]1[C@@H](n2cc(-c3cc(F)c(F)c(F)c3)nn2)[C@@H](O)[C@@H](CO)O[C@H]1C(=O)N(c1cc(Br)cc(Br)c1)[C@@H]1COC[C@H]1O` [Example 35, (2R,3R,4S,5R,6R)-N-(3,5-dibromophenyl)-5-hydroxy-6-(hydroxymethyl)-N-((3R,4S)-4-hydroxytetrahydrofuran-3-yl)-3-methoxy-4-(4-(3,4,5-trifluorophenyl)-1H-1,2,3-triazol-1-yl)tetrahydro-2H-pyran-2-carboxamide], for which the pIC50 is 7.08.
As to `CO[C@@H]1[C@@H](n2cc(-c3cc(F)c(F)c(F)c3)nn2)[C@@H](O)[C@@H](CO)O[C@H]1C(=O)N(c1cc(C)cc(Br)c1)[C@@H]1COC[C@H]1O` [Example 37, (2R,3R,4S,5R,6R)-N-(3-bromo-5-methylphenyl)-5-hydroxy-6-(hydroxymethyl)-N-((3R,4S)-4-hydroxytetrahydrofuran-3-yl)-3-methoxy-4-(4-(3,4,5-trifluorophenyl)-1H-1,2,3-triazol-1-yl)tetrahydro-2H-pyran-2-carboxamide], the negative-log IC50 (pIC50) is 6.73.
Consider `COc1cc(C#N)cc(N(C(=O)[C@@H]2O[C@H](CO)[C@H](O)[C@H](n3cc(-c4cc(F)c(F)c(F)c4)nn3)[C@H]2OC)[C@@H]2COC[C@H]2O)c1` [Example 38, (2R,3R,4S,5R,6R)-N-(3-cyano-5-methoxyphenyl)-5-hydroxy-6-(hydroxymethyl)-N-((3R,4S)-4-hydroxytetrahydrofuran-3-yl)-3-methoxy-4-(4-(3,4,5-trifluorophenyl)-1H-1,2,3-triazol-1-yl)tetrahydro-2H-pyran-2-carboxamide], for which the pIC50 is 6.95.
